Key:
[1] = AUC (0 to infinity) in male Sprague-Dawley rat at 1 mg/kg, iv; assay type: ADME, organism-based; details: in vivo
[2] = Oral bioavailability in male Sprague-Dawley rat at 5 mg/kg, IG; assay type: ADME, organism-based; details: in vivo
[3] = target: Tyrosine-protein kinase JAK2 (Homo sapiens, UniProt O60674); test: Inhibition of JAK2 (unknown origin) by FRET-based Z-Lyte kinase assay
[4] = Toxicity in mouse allografted with mouse BaF3 cells harbouring KIF5B-RET-wild type assessed as drug tolerance at 10 mg/kg BID measured upto 14 days; assay type: organism-based; details: in vivo, 336 h, time < 14 day
[5] = Apparent volume of distribution in male Sprague-Dawley rat at 5 mg/kg, IG; assay type: ADME, organism-based; details: in vivo, po
[6] = target: Proto-oncogene tyrosine-protein kinase receptor Ret (Homo sapiens, UniProt P07949, V804M); test: Inhibition of RET V804M mutant (unknown origin) by FRET-based ZLyte kinase assay
[7] = Cmax in male Sprague-Dawley rat at 5 mg/kg, IG; assay type: ADME, organism-based; details: in vivo, po
[8] = target: Proto-oncogene tyrosine-protein kinase receptor Ret (Homo sapiens, UniProt P07949, G810S); test: Inhibition of RET G810S mutant (unknown origin) by FRET-based ZLyte kinase assay
Sequence of Proto-oncogene tyrosine-protein kinase receptor Ret (Homo sapiens, UniProt P07949, G810S) (P07949 29-1114 G810S limits assumed): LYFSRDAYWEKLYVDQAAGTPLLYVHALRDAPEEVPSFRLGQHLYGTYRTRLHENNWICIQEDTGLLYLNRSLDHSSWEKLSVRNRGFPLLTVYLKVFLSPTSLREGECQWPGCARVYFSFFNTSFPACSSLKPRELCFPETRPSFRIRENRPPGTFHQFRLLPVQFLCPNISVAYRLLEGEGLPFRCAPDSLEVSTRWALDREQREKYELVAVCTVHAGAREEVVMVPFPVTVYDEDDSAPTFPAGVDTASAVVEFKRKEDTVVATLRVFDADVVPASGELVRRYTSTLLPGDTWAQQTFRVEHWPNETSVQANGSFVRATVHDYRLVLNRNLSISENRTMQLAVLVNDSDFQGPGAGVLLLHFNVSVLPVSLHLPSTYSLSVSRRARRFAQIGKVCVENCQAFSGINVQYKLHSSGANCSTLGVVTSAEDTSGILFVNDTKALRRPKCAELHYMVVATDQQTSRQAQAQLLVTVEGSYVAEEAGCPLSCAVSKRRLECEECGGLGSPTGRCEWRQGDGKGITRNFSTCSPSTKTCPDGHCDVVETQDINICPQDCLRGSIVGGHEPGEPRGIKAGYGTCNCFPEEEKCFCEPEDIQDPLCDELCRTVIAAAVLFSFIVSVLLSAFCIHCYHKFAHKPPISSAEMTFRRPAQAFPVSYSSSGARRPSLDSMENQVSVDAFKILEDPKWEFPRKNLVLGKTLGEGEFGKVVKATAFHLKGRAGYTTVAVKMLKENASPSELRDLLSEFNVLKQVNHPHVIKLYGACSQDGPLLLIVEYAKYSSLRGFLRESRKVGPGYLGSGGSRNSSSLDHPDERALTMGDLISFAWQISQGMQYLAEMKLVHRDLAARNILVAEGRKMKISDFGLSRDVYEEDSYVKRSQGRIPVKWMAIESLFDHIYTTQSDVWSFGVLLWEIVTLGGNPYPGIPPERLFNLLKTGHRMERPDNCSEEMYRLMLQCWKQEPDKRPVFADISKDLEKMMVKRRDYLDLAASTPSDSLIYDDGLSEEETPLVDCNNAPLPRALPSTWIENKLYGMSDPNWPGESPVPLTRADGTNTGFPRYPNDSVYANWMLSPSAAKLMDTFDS

[9] = Half life in male Sprague-Dawley rat at 1 mg/kg, iv; assay type: ADME, organism-based; details: in vivo
[10] = Apparent volume of distribution in male Sprague-Dawley rat at 1 mg/kg, iv; assay type: ADME, organism-based; details: in vivo, read-out: Vz
[11] = Toxicity in mouse allografted with mouse BaF3 cells harbouring KIF5B-RET-wild type assessed as mortality at 10 mg/kg BID measured upto 14 days; assay type: organism-based; details: in vivo, 336 h, time < 14 day
[12] = target: Proto-oncogene tyrosine-protein kinase receptor Ret (Homo sapiens, UniProt P07949, V804L); test: Inhibition of RET V804L mutant (unknown origin) by FRET-based ZLyte kinase assay
[13] = target: Vascular endothelial growth factor receptor 1 (Homo sapiens, UniProt P17948); test: Inhibition of FLT1 (unknown origin) by FRET-based Z-Lyte kinase assay
Sequence of Vascular endothelial growth factor receptor 1 (P17948 whole entry): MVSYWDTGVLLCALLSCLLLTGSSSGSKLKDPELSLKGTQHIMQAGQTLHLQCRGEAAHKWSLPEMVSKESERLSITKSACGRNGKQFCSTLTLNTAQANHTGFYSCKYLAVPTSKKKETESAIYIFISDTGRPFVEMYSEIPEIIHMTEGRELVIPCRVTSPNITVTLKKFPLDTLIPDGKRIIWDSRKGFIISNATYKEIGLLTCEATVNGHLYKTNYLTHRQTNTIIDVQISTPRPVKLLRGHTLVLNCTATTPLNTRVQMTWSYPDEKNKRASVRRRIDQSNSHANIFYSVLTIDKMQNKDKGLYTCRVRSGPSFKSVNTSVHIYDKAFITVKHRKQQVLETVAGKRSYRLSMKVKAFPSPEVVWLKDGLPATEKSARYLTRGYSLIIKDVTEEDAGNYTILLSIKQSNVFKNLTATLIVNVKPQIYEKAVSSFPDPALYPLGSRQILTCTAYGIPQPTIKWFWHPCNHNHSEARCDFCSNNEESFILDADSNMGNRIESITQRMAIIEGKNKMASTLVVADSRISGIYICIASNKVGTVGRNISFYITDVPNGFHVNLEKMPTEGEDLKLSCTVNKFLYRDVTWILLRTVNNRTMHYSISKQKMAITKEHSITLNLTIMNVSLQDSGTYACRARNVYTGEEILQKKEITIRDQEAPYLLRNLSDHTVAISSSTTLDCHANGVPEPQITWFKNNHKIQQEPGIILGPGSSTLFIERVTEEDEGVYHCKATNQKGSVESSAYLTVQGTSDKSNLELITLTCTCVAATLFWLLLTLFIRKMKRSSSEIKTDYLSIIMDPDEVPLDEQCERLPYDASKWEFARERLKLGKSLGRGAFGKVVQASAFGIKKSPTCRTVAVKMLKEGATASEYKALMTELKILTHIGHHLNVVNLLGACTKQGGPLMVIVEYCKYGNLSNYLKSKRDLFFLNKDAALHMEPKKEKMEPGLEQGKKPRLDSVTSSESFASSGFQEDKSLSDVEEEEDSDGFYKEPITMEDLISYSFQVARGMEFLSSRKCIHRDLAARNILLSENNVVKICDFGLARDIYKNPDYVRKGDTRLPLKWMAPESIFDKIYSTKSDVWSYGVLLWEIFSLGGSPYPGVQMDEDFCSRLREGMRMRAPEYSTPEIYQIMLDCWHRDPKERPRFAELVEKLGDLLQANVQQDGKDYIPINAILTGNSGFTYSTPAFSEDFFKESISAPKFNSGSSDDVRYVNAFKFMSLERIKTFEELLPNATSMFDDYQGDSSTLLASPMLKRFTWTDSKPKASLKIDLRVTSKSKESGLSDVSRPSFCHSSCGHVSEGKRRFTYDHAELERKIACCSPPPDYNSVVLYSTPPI

[14] = target: T1, Receptor-type tyrosine-protein kinase FLT3 (Homo sapiens, UniProt P36888); test: Inhibition of FLT3 (unknown origin) by FRET-based Z-Lyte kinase assay
T1 sequence (P36888 whole entry): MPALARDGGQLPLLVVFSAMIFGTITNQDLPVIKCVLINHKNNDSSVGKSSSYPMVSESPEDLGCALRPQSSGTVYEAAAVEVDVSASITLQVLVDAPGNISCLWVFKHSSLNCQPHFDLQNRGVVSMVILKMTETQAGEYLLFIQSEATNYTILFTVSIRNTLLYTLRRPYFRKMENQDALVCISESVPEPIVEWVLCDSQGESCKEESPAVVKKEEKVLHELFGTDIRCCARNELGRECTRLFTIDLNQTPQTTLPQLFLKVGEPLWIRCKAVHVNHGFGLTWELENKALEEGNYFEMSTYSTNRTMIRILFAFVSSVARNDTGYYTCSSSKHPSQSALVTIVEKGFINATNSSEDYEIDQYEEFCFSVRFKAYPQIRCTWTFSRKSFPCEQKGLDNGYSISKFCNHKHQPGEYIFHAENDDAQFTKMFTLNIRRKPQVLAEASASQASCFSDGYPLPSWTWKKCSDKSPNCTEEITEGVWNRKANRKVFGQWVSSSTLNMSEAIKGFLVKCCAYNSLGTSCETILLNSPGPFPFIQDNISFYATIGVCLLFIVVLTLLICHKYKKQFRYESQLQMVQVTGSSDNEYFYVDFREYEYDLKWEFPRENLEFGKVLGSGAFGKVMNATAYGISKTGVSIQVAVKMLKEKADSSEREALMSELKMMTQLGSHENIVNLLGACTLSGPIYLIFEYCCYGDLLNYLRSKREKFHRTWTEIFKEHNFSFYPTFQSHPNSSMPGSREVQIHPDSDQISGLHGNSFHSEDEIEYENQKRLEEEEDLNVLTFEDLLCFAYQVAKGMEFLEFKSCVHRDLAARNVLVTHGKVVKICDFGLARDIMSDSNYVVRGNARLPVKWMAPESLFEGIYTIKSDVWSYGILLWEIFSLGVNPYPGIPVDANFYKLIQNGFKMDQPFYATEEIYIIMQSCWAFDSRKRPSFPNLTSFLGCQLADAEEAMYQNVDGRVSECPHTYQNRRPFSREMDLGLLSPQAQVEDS

[15] = Toxicity in mouse allografted with mouse BaF3 cells harbouring KIF5B-RET G810R mutant assessed as drug tolerance at 10 to 30 mg/kg BID measured upto 14 days; assay type: organism-based; details: in vivo, 336 h, dose 10-30 mg/kg, time < 14 day
[16] = target: Fibroblast growth factor receptor 4 (Homo sapiens, UniProt P22455); test: Inhibition of FGFR4 (unknown origin) by FRET-based Z-Lyte kinase assay
[17] = target: Proto-oncogene tyrosine-protein kinase receptor Ret (Homo sapiens, UniProt P07949); test: Inhibition of wild type RET (unknown origin) by FRET-based ZLyte kinase assay
Sequence of Proto-oncogene tyrosine-protein kinase receptor Ret (Homo sapiens, UniProt P07949) (P07949 whole entry): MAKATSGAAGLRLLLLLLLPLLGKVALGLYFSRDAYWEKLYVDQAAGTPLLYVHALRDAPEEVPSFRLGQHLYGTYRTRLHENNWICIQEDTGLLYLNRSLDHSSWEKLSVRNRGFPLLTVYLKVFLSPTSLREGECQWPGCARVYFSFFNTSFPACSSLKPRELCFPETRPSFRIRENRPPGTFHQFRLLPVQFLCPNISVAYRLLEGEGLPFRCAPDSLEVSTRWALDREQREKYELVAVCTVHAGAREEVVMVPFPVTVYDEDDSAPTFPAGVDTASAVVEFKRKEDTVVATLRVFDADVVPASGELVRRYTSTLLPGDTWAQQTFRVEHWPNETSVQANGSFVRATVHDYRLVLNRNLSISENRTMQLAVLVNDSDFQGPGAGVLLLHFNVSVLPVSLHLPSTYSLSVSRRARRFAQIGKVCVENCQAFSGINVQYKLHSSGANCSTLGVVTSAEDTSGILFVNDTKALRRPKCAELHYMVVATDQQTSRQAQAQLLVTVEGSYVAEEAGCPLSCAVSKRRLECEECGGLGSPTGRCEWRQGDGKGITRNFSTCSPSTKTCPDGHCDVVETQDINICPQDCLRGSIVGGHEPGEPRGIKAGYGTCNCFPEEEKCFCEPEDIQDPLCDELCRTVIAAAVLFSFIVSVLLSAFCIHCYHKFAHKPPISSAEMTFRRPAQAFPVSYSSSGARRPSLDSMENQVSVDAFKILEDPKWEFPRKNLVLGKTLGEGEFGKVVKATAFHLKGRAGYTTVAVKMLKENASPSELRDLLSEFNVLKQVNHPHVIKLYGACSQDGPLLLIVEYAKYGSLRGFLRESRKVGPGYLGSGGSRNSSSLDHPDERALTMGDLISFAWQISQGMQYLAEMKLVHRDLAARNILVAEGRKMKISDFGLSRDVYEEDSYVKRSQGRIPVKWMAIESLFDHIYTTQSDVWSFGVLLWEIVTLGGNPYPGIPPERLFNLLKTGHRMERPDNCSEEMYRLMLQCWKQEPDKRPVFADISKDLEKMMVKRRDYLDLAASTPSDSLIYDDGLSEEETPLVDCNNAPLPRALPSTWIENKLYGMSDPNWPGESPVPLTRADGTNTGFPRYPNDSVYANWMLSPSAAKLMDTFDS

[18] = Toxicity in mouse allografted with mouse BaF3 cells harbouring KIF5B-RET G810R mutant assessed as effect on body weight loss at 10 to 30 mg/kg BID measured upto 14 days; assay type: organism-based; details: in vivo, 336 h, dose 10-30 mg/kg, time < 14 day
[19] = target: Vascular endothelial growth factor receptor 3 (Homo sapiens, UniProt P35916); test: Inhibition of FLT4 (unknown origin) by FRET-based Z-Lyte kinase assay
[20] = target: Proto-oncogene tyrosine-protein kinase receptor Ret (Homo sapiens, UniProt P07949, G810R); test: Inhibition of RET G810R mutant (unknown origin) by FRET-based ZLyte kinase assay
[21] = AUC (0 to infinity) in male Sprague-Dawley rat at 5 mg/kg, IG; assay type: ADME, organism-based; details: in vivo, po
[22] = Half life in male Sprague-Dawley rat at 5 mg/kg, IG; assay type: ADME, organism-based; details: in vivo, po
[23] = Toxicity in mouse allografted with mouse BaF3 cells harbouring KIF5B-RET-wild type assessed as effect on body weight loss at 10 mg/kg BID measured upto 14 days; assay type: organism-based; details: in vivo, 336 h, time < 14 day
[24] = target: Proto-oncogene tyrosine-protein kinase receptor Ret (Homo sapiens, UniProt P07949, M918T); test: Inhibition of RET M918T mutant (unknown origin) by FRET-based ZLyte kinase assay
Sequence of Proto-oncogene tyrosine-protein kinase receptor Ret (Homo sapiens, UniProt P07949, M918T) (P07949 29-1114 M918T limits assumed): as the sequence (P07949 29-1114 G810S limits assumed) above, with S782G, M890T counted along it

[25] = Clearance in male Sprague-Dawley rat at 1 mg/kg, iv; assay type: ADME, organism-based; details: in vivo
[26] = Tmax in male Sprague-Dawley rat at 5 mg/kg, IG; assay type: ADME, organism-based; details: in vivo, po
[27] = target: Vascular endothelial growth factor receptor 2 (Homo sapiens, UniProt P35968); test: Inhibition of KDR (unknown origin) by FRET-based Z-Lyte kinase assay
[28] = target: Proto-oncogene tyrosine-protein kinase receptor Ret (Homo sapiens, UniProt P07949, G810C); test: Inhibition of RET G810C mutant (unknown origin) by FRET-based ZLyte kinase assay
[29] = target: Epithelial discoidin domain-containing receptor 1 (Homo sapiens, UniProt Q08345); test: Inhibition of DDR1 (unknown origin) by FRET-based Z-Lyte kinase assay
[30] = Toxicity in mouse allografted with mouse BaF3 cells harbouring KIF5B-RET G810R mutant assessed as mortality at 10 to 30 mg/kg BID measured upto 14 days; assay type: organism-based; details: in vivo, 336 h, dose 10-30 mg/kg, time < 14 day
[31] = Cmax in male Sprague-Dawley rat at 1 mg/kg, iv; assay type: ADME, organism-based; details: in vivo
[32] = Clearance in male Sprague-Dawley rat at 5 mg/kg, IG; assay type: ADME, organism-based; details: in vivo, po

Q: Which results are given for `COc1ccc(CN2C3CC2CN(c2ccc(-c4nc(-c5cnn(C)c5)cc5ncccc45)cn2)C3)cc1C#N`?
A: AUC(0-inf) [1]: 451 ng·h/mL; bioavailability [2]: 30.4%; IC50 [3]: 2650 nM; Activity [4]: Non-Toxic; Vz [5]: 48.1 L/kg; IC50 [6]: 1.8 nM; Cmax [7]: 140 ng/mL; IC50 [8]: 5.7 nM; half-life [9]: 5 h; Vd [10]: 17.2 L/kg; Activity [11]: Non-Toxic; IC50 [12]: 0.2 nM; IC50 [13]: 34.9 nM; IC50 [14]: 52.7 nM; Activity [15]: Non-Toxic; IC50 [16]: 113 nM; IC50 [17]: 3.2 nM; Activity [18]: Non-Toxic; IC50 [19]: 5.1 nM; IC50 [20]: 8.3 nM; AUC(0-inf) [21]: 686 ng·h/mL; half-life [22]: 4.6 h; Activity [23]: Non-Toxic; IC50 [24]: 0.4 nM; clearance [25]: 40 mL/min/kg; Tmax [26]: 1.6 h; IC50 [27]: 27.3 nM; IC50 [28]: 7.1 nM; IC50 [29]: 334 nM; Activity [30]: Non-Toxic; Cmax [31]: 265 ng/mL; CL/F [32]: 122 mL/min/kg

From ChEMBL document CHEMBL6127078, “Discovery of 7-(1-methyl-1H-pyrazol-4-yl)-1,6-naphthyridine derivatives as potent inhibitors of rearranged during transfection (RET) and RET solvent-front mutants for overcoming selpercatinib resistance” (Eur J Med Chem, 2024)
